Common to all, as to format: cell-based, human
One assay concerns NF-κB. Description: NF-κB localization after LPS stimulation, three-cell-type co-culture containing about 0.11% microglia. The note with it: proportion of microglia about 0.11%. How it is done: The amount of cells required for the activated microglia to affect other cells was examined. Two-dimensional three-cell-type co-cultures of astrocytes, neurons, and microglia in which the proportion of the microglia was about 11%, 1.1%, and 0.11% were produced by the same method as in <1> of Test Example 1. In addition, the cells were subjected to LPS stimulation and fixed by the same method as in <1> of Test Example 1. Furthermore, the localization of NF-κB was evaluated by the same method as in <1> of Test Example 1.

In assay [1] the test system is STAT1. The assay can be described thus: STAT1 localization after LPS stimulation, two-cell-type co-culture of nerve and astrocytes. As to conditions: co-culture without microglia, all time points.
In assay [2] the test system is three-cell-type co-culture of neurons, astrocytes, and microglia. Description: Neural activity by calcium imaging (BPM), two-dimensional three-cell-type co-culture of neurons, astrocytes and microglia. The note with it: 24 hours after stimulation (TNF-α 7.5 ng/mL or LPS 100 ng/mL). How it is done:
Matrigel basement membrane matrix (Corning, 356234) diluted 120-fold with DMEM/F12 (Life technologies, 11320-033) was added to a 96-well plate at 65 μL/well and allowed to stand at 4° C. After 24 hours, the culture medium was replaced with a progenitor cell culture medium and used. Astrocyte precursor cells (XCell Science, XCS-AP-001-1V) were seeded in a 96-well plate at a density of 6×10^4 cells/well, cultured under the conditions of 37° C. and 5% CO2, after culture medium was replaced with the differentiation induction culture medium, further cultured for 5 days to differentiate into astrocytes. […] After centrifugation, the supernatant was removed, the cells were suspended in 1 mL of the co-culture medium, and the number of cells was counted. […] After centrifugation, the supernatant was removed, the cells were suspended in 1 mL of the co-culture medium, and the number of cells was counted. […] In addition, at 24 hours after the stimulation with LPS or TNF-α, the neural activity was evaluated by calcium imaging. […] After incubating for 1 hour under conditions of 37° C. and 5% CO2, the solution was replaced with a warmed (37° C.) recording solution, and the fluorescence was measured for 10 minutes with FDSS (registered trademark)/μcell (Hamamatsu Photonics K. K., C13299). […]

In assay [3] the test system is STAT1. Description: STAT1 localization by immunostaining after LPS stimulation, three-cell-type co-culture of neurons, astrocytes and microglia. As to conditions: LPS 100 ng/mL. How it is done:
Microglia were specifically stimulated by adding LPS (FUJIFILM Wako Pure Chemical Corporation, 124-05151) at 100 ng/mL to the two-dimensional co-culture that had been cultured for 4 weeks. The cells were fixed by treating, for 30 minutes, with a formaldehyde solution (FUJIFILM Wako Pure Chemical Corporation, 061-00416) diluted 10-fold with PBS(−) (FUJIFILM Wako Pure Chemical Corporation, 166-23555) without treatment, and at 0.5 hours, 1 hour, 3 hours, 6 hours, and 24 hours after the treatment. […]
The next day, the cells were washed with PBS (−), then as a secondary antibody reaction, treated with Donkey anti-goat Alexa Fluor (registered trademark) 488 (Thermo Fisher Scientific, A11055) diluted 1000-fold, Donkey anti-rabbit Alexa Fluor (registered trademark) 594 (Thermo Fisher Scientific, A32754) diluted 1000-fold, and Hoechst (registered trademark) 33342 (Dojindo, 346-07951) diluted 1000-fold as a secondary antibody reaction, and allowed to stand at room temperature for 60 minutes. After washing with PBS (−), the cells were imaged with a fluorescence microscope (Nikon, ECLIPSE Ti) to acquire an image. […]

Regarding lipopolysaccharide [LPS], the “nuclear translocation of NF-κB” value is “only some cells” with NF-κB (1 hour after the LPS treatment); “many cells” with NF-κB (3 hours and 6 hours after the LPS treatment). Also, in the assay with STAT1 [1], the “nuclear translocation of STAT1” value is “not observed at any time”. Further, in assay [2], the “BPM (the number of peaks of calcium oscillation per minute) as compared with the control” value is “increase”. The “STAT1 localized in the nucleus” value is recorded as “some cells” in the assay with STAT1 [3] (1 hour and 3 hours after the LPS stimulation); “many cells” with STAT1 [3] (6 hours after the stimulation).

Source of the values: patent US20260118345A1, “METHOD OF EVALUATING INTERCELLULAR INTERACTIONS IN NEUROINFLAMMATION” (FUJIFILM Corporation, priority 2023, published 2026).
